Source: the supplement of paper PMC10307832

What was measured:
Experiment in all cases: relative viability (nuclei count vs DMSO), 5 days (fraction); higher = more cells survive
[1] = tested on: ChaGo-K-1
Outline: (§1)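 Dosing by pin tool came one day after lung cancer cell lines were seeded in 1536-well plates, using either one drug or a fixed anchor-drug dose plus five library-drug doses (not always all listed) in √10 steps. After 5 days, nuclei were counted on 4× images. Relative viability is treated-well nuclei count divided by vehicle-well nuclei count, and values are medians of duplicate plates.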

[2] = tested on: EKVX
Outline: as §1

[3] = tested on: EMC-BAC-2
Outline: as §1

[4] = tested on: EPLC-272H
Outline: as §1

[5] = tested on: HCC-78
Outline: as §1

[6] = tested on: HCC-827
Outline: as §1

[7] = tested on: LCLC-103H
Outline: as §1

[8] = tested on: LK-2
Outline: as §1

[9] = tested on: LU99A
Outline: as §1

[10] = tested on: LXF-289
Outline: as §1

[11] = tested on: NCI-H1666
Outline: as §1

[12] = tested on: NCI-H1975
Outline: as §1

[13] = tested on: NCI-H2126
Outline: as §1

[14] = tested on: NCI-H2342
Outline: as §1

[15] = tested on: NCI-H23
Outline: as §1

[16] = tested on: NCI-H2405
Outline: as §1

[17] = tested on: NCI-H322M
Outline: as §1

[18] = tested on: PC-14
Outline: as §1

[19] = tested on: RERF-LC-KJ
Outline: as §1

[20] = tested on: SK-LU-1
Outline: as §1

[21] = tested on: SW 1573
Outline: as §1

[22] = tested on: SW 900
Outline: as §1

`CCN(CC)CCCCNc1ncc2cc(-c3cc(OC)cc(OC)c3)c(NC(=O)NC(C)(C)C)nc2n1` + O=C(c1cc(Cc2n[nH]c(=O)c3ccccc23)ccc1F)N1CCN(C(=O)C2CC2)CC1 [Olaparib] (partner 8 µM) gave a relative viability ([1]; first compound 0.01 µM) of 0.444, a relative viability ([1]; first compound 0.03162 µM) of 0.416 and a relative viability ([1]; first compound 0.1 µM) of 0.442. The relative viability ([1]; first compound 0.3162 µM) was 0.46, the relative viability ([1]; first compound 1 µM) was 0.388 and the relative viability ([2]; first compound 0.03162 µM) was 0.873. The relative viability ([2]; first compound 0.1 µM) was 1.07, the relative viability ([2]; first compound 0.3162 µM) was 1.05 and the relative viability ([2]; first compound 1 µM) was 0.868. It also gave a relative viability ([3]; first compound 0.03162 µM) of 0.485, a relative viability ([3]; first compound 0.1 µM) of 0.56 and a relative viability ([3]; first compound 0.3162 µM) of 0.507. For the same molecule, the relative viability ([3]; first compound 1 µM) was 0.525, the relative viability ([4]; first compound 0.01 µM) was 0.884 and the relative viability ([4]; first compound 0.03162 µM) was 0.701. For the same molecule, the relative viability ([4]; first compound 0.1 µM) was 0.647, the relative viability ([4]; first compound 0.3162 µM) was 0.737 and the relative viability ([4]; first compound 1 µM) was 0.488. It also gave a relative viability ([5]; first compound 0.01 µM) of 0.82, a relative viability ([5]; first compound 0.03162 µM) of 0.782 and a relative viability ([5]; first compound 0.1 µM) of 0.802. It also gave a relative viability ([5]; first compound 0.3162 µM) of 0.94, a relative viability ([5]; first compound 1 µM) of 0.771 and a relative viability ([6]; first compound 0.01 µM) of 0.611. It also gave a relative viability ([6]; first compound 0.03162 µM) of 0.668, a relative viability ([6]; first compound 0.1 µM) of 0.702 and a relative viability ([6]; first compound 0.3162 µM) of 0.682. The relative viability ([6]; first compound 1 µM) was 0.735, the relative viability ([7]; first compound 0.01 µM) was 0.813 and the relative viability ([7]; first compound 0.03162 µM) was 0.788. The relative viability ([7]; first compound 0.1 µM) was 0.888, the relative viability ([7]; first compound 0.3162 µM) was 0.833 and the relative viability ([7]; first compound 1 µM) was 0.567. It also gave a relative viability ([8]; first compound 0.01 µM) of 0.634, a relative viability ([8]; first compound 0.03162 µM) of 0.547 and a relative viability ([8]; first compound 0.1 µM) of 0.714. The relative viability ([8]; first compound 0.3162 µM) was 0.457, the relative viability ([8]; first compound 1 µM) was 0.226 and the relative viability ([9]; first compound 0.01 µM) was 0.249. The relative viability ([9]; first compound 0.03162 µM) was 0.288, the relative viability ([9]; first compound 0.1 µM) was 0.286 and the relative viability ([9]; first compound 0.3162 µM) was 0.285. The relative viability ([9]; first compound 1 µM) was 0.245, the relative viability ([10]; first compound 0.01 µM) was 1.14 and the relative viability ([10]; first compound 0.03162 µM) was 1.11. The relative viability ([10]; first compound 0.1 µM) was 1.25, the relative viability ([10]; first compound 0.3162 µM) was 1.1 and the relative viability ([10]; first compound 1 µM) was 1.08. It also gave a relative viability ([11]; first compound 0.01 µM) of 0.812, a relative viability ([11]; first compound 0.03162 µM) of 0.708 and a relative viability ([11]; first compound 0.1 µM) of 0.686. It also gave a relative viability ([11]; first compound 0.3162 µM) of 0.748, a relative viability ([11]; first compound 1 µM) of 0.719 and a relative viability ([12]; first compound 0.01 µM) of 0.85. The relative viability ([12]; first compound 0.03162 µM) was 0.791, the relative viability ([12]; first compound 0.1 µM) was 1.05 and the relative viability ([12]; first compound 0.3162 µM) was 0.903. It also gave a relative viability ([12]; first compound 1 µM) of 0.708, a relative viability ([13]; first compound 0.01 µM) of 1.03 and a relative viability ([13]; first compound 0.03162 µM) of 0.948. For the same molecule, the relative viability ([13]; first compound 0.1 µM) was 0.976, the relative viability ([13]; first compound 0.3162 µM) was 0.984 and the relative viability ([13]; first compound 1 µM) was 0.899. The relative viability ([14]; first compound 0.01 µM) was 0.476, the relative viability ([14]; first compound 0.03162 µM) was 0.437 and the relative viability ([14]; first compound 0.1 µM) was 0.459. For the same molecule, the relative viability ([14]; first compound 0.3162 µM) was 0.509, the relative viability ([14]; first compound 1 µM) was 0.519 and the relative viability ([15]; first compound 0.01 µM) was 0.306. For the same molecule, the relative viability ([15]; first compound 0.03162 µM) was 0.226, the relative viability ([15]; first compound 0.1 µM) was 0.375 and the relative viability ([15]; first compound 0.3162 µM) was 0.362. It also gave a relative viability ([15]; first compound 1 µM) of 0.332, a relative viability ([16]; first compound 0.01 µM) of 0.873 and a relative viability ([16]; first compound 0.03162 µM) of 0.88. For the same molecule, the relative viability ([16]; first compound 0.1 µM) was 1.03, the relative viability ([16]; first compound 0.3162 µM) was 0.952 and the relative viability ([16]; first compound 1 µM) was 0.928. The relative viability ([17]; first compound 0.01 µM) was 0.784, the relative viability ([17]; first compound 0.03162 µM) was 0.638 and the relative viability ([17]; first compound 0.1 µM) was 0.745. For the same molecule, the relative viability ([17]; first compound 0.3162 µM) was 0.82, the relative viability ([17]; first compound 1 µM) was 0.76 and the relative viability ([18]; first compound 0.01 µM) was 0.318. The relative viability ([18]; first compound 0.03162 µM) was 0.341, the relative viability ([18]; first compound 0.1 µM) was 0.292 and the relative viability ([18]; first compound 0.3162 µM) was 0.278. For the same molecule, the relative viability ([18]; first compound 1 µM) was 0.236, the relative viability ([19]; first compound 0.01 µM) was 1.01 and the relative viability ([19]; first compound 0.03162 µM) was 0.92. The relative viability ([19]; first compound 0.1 µM) was 1.12, the relative viability ([19]; first compound 0.3162 µM) was 1.05 and the relative viability ([19]; first compound 1 µM) was 0.963. For the same molecule, the relative viability ([20]; first compound 0.01 µM) was 0.447, the relative viability ([20]; first compound 0.03162 µM) was 0.404 and the relative viability ([20]; first compound 0.1 µM) was 0.477. The relative viability ([20]; first compound 0.3162 µM) was 0.472, the relative viability ([20]; first compound 1 µM) was 0.433 and the relative viability ([21]; first compound 0.01 µM) was 0.513. The relative viability ([21]; first compound 0.03162 µM) was 0.551, the relative viability ([21]; first compound 0.1 µM) was 0.613 and the relative viability ([21]; first compound 0.3162 µM) was 0.522. For the same molecule, the relative viability ([21]; first compound 1 µM) was 0.421, the relative viability ([22]; first compound 0.01 µM) was 0.834 and the relative viability ([22]; first compound 0.03162 µM) was 0.901. The relative viability ([22]; first compound 0.1 µM) was 0.839, the relative viability ([22]; first compound 0.3162 µM) was 0.793 and the relative viability ([22]; first compound 1 µM) was 0.592.
